The values that follow are results of earlier work, collected in publication PMC8025584, “Identification of multipotent drugs for COVID-19 therapeutics with the evaluation of their SARS-CoV2 inhibitory activity” (Computational and Structural Biotechnology Journal, 2021).

Counter-ions that a name gives are not always drawn. Like-named read-outs stand apart in the source and are kept apart here.

The test system of this data set is differentially expressed human proteins in COVID-19. To be noted: cited from earlier work.
[1] abbreviates: gene TNF, drug-gene interaction listed in DGIdb export, ref DGIdb.
[2] abbreviates: gene GAK, drug-gene interaction listed in DGIdb export, ref DGIdb.
The mark [3] stands for this setting: gene HCK, drug-gene interaction listed in DGIdb export, ref DGIdb.

In the case of `C[C@@H]1O[C@@H](O[C@@H]2[C@@H](NC(=O)c3cc(=O)[nH]c(=O)[nH]3)C[C@@H](C(=O)NCCNC(=O)COCCOCC(=O)Nc3cc(S(=O)(=O)O)cc4cc(S(=O)(=O)O)cc(S(=O)(=O)O)c34)C[C@H]2O[C@@H]2O[C@H](CO)[C@H](O)[C@H](O[C@@H](CC3CCCCC3)C(=O)O)[C@H]2OC(=O)c2ccccc2)[C@@H](O)[C@H](O)[C@@H]1O` [[…]], the interaction_types entry (gene SELL, ref DGIdb) is recorded as “antagonist”.

For the compound `Nc1cccc2c1C(=O)N(C1CCC(=O)NC1=O)C2=O` (centres unmarked) [POMALIDOMIDE], the interaction_types entry under setting [1] is “inhibitor”.

For the compound `Nc1ncnc2c1ncn2[C@@H]1O[C@H](COP(=O)(O)OP(=O)(O)OP(=O)(O)O)[C@@H](O)[C@H]1O` [ADENOSINE TRIPHOSPHATE], where the note is “gene P2RY13, ref DGIdb”, the interaction_types result was “agonist”.

Turning to POLAPREZINC, the interaction_types entry under setting [1] is “inhibitor”.

On to `CCC[C@H](Nc1nc(-c2ccc(NC(=O)NCC)c(OC)c2)ncc1C)c1cccnc1` [LEXIBULIN], for which the interaction_types entry (gene TUBA4A, ref DGIdb) is given as “inhibitor”.

As for `CC(C)COCC(CN(Cc1ccccc1)c1ccccc1)N1CCCC1` (centres unmarked) [BEPRIDIL], the interaction_types result (gene CACNA1A, drug-gene interaction listed in DGIdb export, ref DGIdb) was “inhibitor”.

On to `Cc1c(CN2CCN(C(=O)[C@H](C)O)CC2)sc2c(N3CCOCC3)nc(-c3cnc(N)nc3)nc12` [APITOLISIB], for which the interaction_types entry (gene FGR, ref DGIdb) is reported as “inhibitor”.

Consider `COc1cc(Nc2ncc(F)c(Nc3ccc4c(n3)N(COP(=O)(O)O)C(=O)C(C)(C)O4)n2)cc(OC)c1OC` [FOSTAMATINIB, reference compound], for which the interaction_types entry reads like this: (gene EIF2AK2, ref DGIdb) “inhibitor”; (gene FGR, ref DGIdb) “inhibitor”; under setting [2], “inhibitor”; under setting [3], “inhibitor”; (gene PTK2B, ref DGIdb) “inhibitor”; (gene TAOK3, ref DGIdb) “inhibitor”.

For the compound RILONACEPT, the interaction_types entry (gene IL1RN, ref DGIdb) was “binder”.

In the case of `CO[C@H]1C(=O)[C@]2(C)[C@@H](OC)C[C@H]3OC[C@@]3(OC(C)=O)[C@H]2[C@H](OC(=O)c2ccccc2)[C@]2(O)C[C@H](OC(=O)[C@H](O)[C@@H](NC(=O)OC(C)(C)C)c3ccccc3)C(C)=C1C2(C)C` [CABAZITAXEL, reference compound], the interaction_types result (gene TUBA4A, ref DGIdb) is recorded as “inhibitor¦binder”.

As to `CC(C)c1ccc2oc3nc(N)c(C(=O)O)cc3c(=O)c2c1` [AMLEXANOX, reference compound], the interaction_types result reads like this: (gene S100A12, ref DGIdb) “antagonist”; (gene S100A13, drug-gene interaction listed in DGIdb export, ref DGIdb) “antagonist”.

For `CC1=NS(=O)(=O)c2cc(Cl)ccc2N1` [DIAZOXIDE], the interaction_types entry (gene CA1, ref DGIdb) was “inhibitor”.

PEGFILGRASTIM: the interaction_types entry (gene CSF3R, ref DGIdb) was “agonist”.

Take `CC(C)[C@H](O)C(=O)N[C@@H](C)C(=O)N[C@@H]1C(=O)N(C)CCc2ccccc21`: the interaction_types result (gene PSENEN, ref DGIdb) is listed as “inhibitor”.

`C[C@]12C=CC(=O)C=C1CC[C@@H]1[C@@H]2CC[C@]2(C)OC(=O)CC[C@@H]12` [TESTOLACTONE]: the interaction_types entry (gene CYP19A1, ref DGIdb) is recorded as “inhibitor”.

As to `Cc1ccc(C(=O)Nc2ccc(S(=O)(=O)O)c3cc(S(=O)(=O)O)cc(S(=O)(=O)O)c23)cc1NC(=O)c1cccc(NC(=O)Nc2cccc(C(=O)Nc3cc(C(=O)Nc4ccc(S(=O)(=O)O)c5cc(S(=O)(=O)O)cc(S(=O)(=O)O)c45)ccc3C)c2)c1` [SURAMIN], the interaction_types entry (gene P2RY13, ref DGIdb) is recorded as “antagonist”.

`C[C@H]1c2cccc(O)c2C(=O)C2=C(O)[C@]3(O)C(=O)C(C(N)=O)=C(O)[C@@H](N(C)C)[C@@H]3[C@@H](O)[C@@H]21` [DOXYCYCLINE]: the interaction_types result (gene MMP8, ref DGIdb) was “inhibitor”.

Take `CC(/C=C/[C@@H]1C[C@]1(C)c1ccc2c(c1)C(C)(C)CCC2(C)C)=C\C(=O)O` [IRX-4204]: the interaction_types entry (gene RXRB, ref DGIdb) is listed as “agonist”.

In the case of DROTRECOGIN ALFA (ACTIVATED), the interaction_types entry (gene F5, drug-gene interaction listed in DGIdb export, ref DGIdb) is “inhibitor”.

Turning to `CCCCCCCN(CC)CCCC(O)c1ccc(NS(C)(=O)=O)cc1` (centres unmarked) [IBUTILIDE, reference compound], the interaction_types result (gene KCNH7, ref DGIdb) is given as “inhibitor”.

`NS(=O)(=O)c1cc2c(cc1C(F)(F)F)NC(Cc1ccccc1)NS2(=O)=O` (centres unmarked) [BENDROFLUMETHIAZIDE]: the interaction_types result (gene CA1, ref DGIdb) is “inhibitor”.

Regarding `C/C(=C\c1ccc(OCCN2CCOCC2)cc1)c1ccc2c(c1)C(C)(C)CCC2(C)C` [MOFAROTENE], the interaction_types entry (gene RXRB, ref DGIdb) is “modulator”.

On to `NS(=O)(=O)c1cc(C2(O)NC(=O)c3ccccc32)ccc1Cl` (centres unmarked) [CHLORTHALIDONE, reference compound], for which the interaction_types result (gene CA1, ref DGIdb) was “inhibitor”.

As to `CCOC(=O)/C=C(C)/C=C/C=C(C)/C=C/c1c(C)cc(OC)c(C)c1C` [ETRETINATE], for the setting “gene RXRB, ref DGIdb”, the interaction_types result was “agonist”.

Consider `C[C@]1(C(=O)N(CCCC(=O)O)Cc2cccc(Cl)c2)CCN1C(=O)c1csc2ccccc12` [GLPG-0974], for which the interaction_types entry (gene FFAR2, ref DGIdb) is listed as “antagonist”.

As for `NS(=O)(=O)c1cc2c(cc1Cl)NC(C1CC3C=CC1C3)NS2(=O)=O` (centres unmarked) [CYCLOTHIAZIDE, reference compound], where the note is “gene CA1, ref DGIdb”, the interaction_types result is recorded as “inhibitor”.

`COc1ccccc1OCCNCC(O)COc1cccc2[nH]c3ccccc3c12` (centres unmarked) [CARVEDILOL, reference compound]: the interaction_types result (gene KCNJ2, ref DGIdb) is “inhibitor”.

As for `CCC1NC(=O)c2cc(S(N)(=O)=O)c(Cl)cc2N1` (centres unmarked) [QUINETHAZONE], the interaction_types result (gene CA1, ref DGIdb) is recorded as “inhibitor”.

As for `CC1(C)OC(c2ccc(S(N)(=O)=O)cc2)=C(c2cccc(F)c2)C1=O` [POLMACOXIB], the interaction_types result (gene CA1, ref DGIdb) was “inhibitor”.

With `NS(=O)(=O)c1cc(Cl)c(Cl)c(S(N)(=O)=O)c1` [DICHLORPHENAMIDE], the interaction_types result (gene CA1, ref DGIdb) is “inhibitor”.

`CC(=O)/N=c1/sc(S(N)(=O)=O)nn1C` [METHAZOLAMIDE]: the interaction_types entry (gene CA1, ref DGIdb) is “inhibitor”.

Turning to `CNC(=O)c1ccc(Nc2ncc(C(F)(F)F)c(NCc3nccnc3N(C)S(C)(=O)=O)n2)cc1` [DEFACTINIB], the interaction_types entry (gene PTK2B, ref DGIdb) is listed as “inhibitor”.

With `COc1cc2nc(N3CCN(C(=O)C4CCCO4)CC3)nc(N)c2cc1OC` (centres unmarked) [TERAZOSIN], the interaction_types entry (gene KCNH7, ref DGIdb) is “inhibitor”.

For `Cc1ccc(-n2nc(C(C)(C)C)cc2NC(=O)NCc2cc(F)ccc2Oc2ccc3c(cnn3CCO)c2)cc1` [PEXMETINIB], the interaction_types entry under setting [3] is given as “inhibitor”.

For the compound `COc1cc([C@@H]2c3cc4c(cc3[C@H](O)[C@H]3COC(=O)[C@H]23)OCO4)cc(OC)c1OC` [PODOFILOX, reference compound], the interaction_types entry (gene TUBA4A, ref DGIdb) was “inhibitor”.

Turning to INFLIXIMAB, the interaction_types entry under setting [1] is recorded as “inhibitor”.

Consider `O=C1C[C@@H](c2ccc(O)cc2)Oc2cc(O)cc(O)c21` [NARINGENIN], for which the interaction_types result (gene CYP19A1, ref DGIdb) is reported as “inhibitor”.

Turning to `COc1cc(C)c(/C=C/C(C)=C/C=C/C(C)=C/C(=O)O)c(C)c1C` [ACITRETIN], the interaction_types entry (gene RXRB, ref DGIdb) is reported as “agonist”.

`CNC(=O)[C@@H](NC(=O)[C@H](CC(C)C)[C@H](O)C(=O)NO)C(C)(C)C`: the interaction_types result (gene MMP8, ref DGIdb) is “inhibitor”.

Regarding `Cc1ccc2c(=O)c3cccc(CC(=O)O)c3oc2c1C` [VADIMEZAN], the interaction_types result under setting [1] is “inducer”.

Turning to `N#Cc1ccc(C2CCCc3cncn32)cc1` (centres unmarked) [FADROZOLE], the interaction_types result is “inhibitor”.

In the case of `CCOC(=O)C1=C(COCCN)NC(C)=C(C(=O)OC)C1c1ccccc1Cl` (centres unmarked) [AMLODIPINE], the interaction_types result (gene CA1, ref DGIdb) is “inhibitor”.

Consider `CC(C)(C)c1[nH]cnc1/C=c1\[nH]c(=O)/c(=C/c2ccccc2)[nH]c1=O` [PLINABULIN], for which the interaction_types entry (gene TUBA4A, ref DGIdb) is “inhibitor”.

For the compound `CC[C@]12C=CCN3CC[C@@]4(c5cc([C@@]6(C(=O)OC)C[C@@H]7C[C@@H](C(C)(F)F)CN(Cc8c6[nH]c6ccccc86)C7)c(OC)cc5N(C)[C@H]4[C@@](O)(C(=O)OC)[C@@H]1OC(C)=O)[C@@H]32` [VINFLUNINE], under “gene TUBA4A, ref DGIdb”, the interaction_types result was “inhibitor”.

In the case of `CN1C(CCl)Nc2cc(Cl)c(S(N)(=O)=O)cc2S1(=O)=O` (centres unmarked) [METHYCLOTHIAZIDE], where the note is “gene CA1, ref DGIdb”, the interaction_types entry is “inhibitor”.

`C=C1C[C@@H]2CC[C@@]34C[C@H]5O[C@H]6[C@@H](O3)[C@H]3O[C@H](CC[C@@H]3O[C@H]6[C@H]5O4)CC(=O)C[C@@H]3[C@@H](OC)[C@@H](C[C@H](O)CN)O[C@H]3C[C@H]3O[C@@H](CC[C@@H]1O2)C[C@@H](C)C3=C` [ERIBULIN MESYLATE]: under “gene TUBA4A, ref DGIdb”, the interaction_types entry was “inhibitor”.

In the case of `NCCc1c[nH]cn1` [HISTAMINE], the interaction_types result is reported as “activator”.

`CCCN(c1ccncc1F)n1cc(C)c2ccccc21` [[…]]: the interaction_types result (gene KCNH7, ref DGIdb) is on record as “blocker”.

On to `NS(=O)(=O)c1cc2c(cc1Cl)NCNS2(=O)=O` [HYDROCHLOROTHIAZIDE, reference compound], for which, where the note is “gene CA1, ref DGIdb”, the interaction_types entry is recorded as “inhibitor”.

With `Nc1ncnc2c1ncn2[C@@H]1O[C@H](COP(=O)(O)O)[C@@H](O)[C@H]1O` [ADENOSINE PHOSPHATE], where the note is “gene PRKAB1, ref DGIdb”, the interaction_types result is recorded as “activator”.

As to `CCS(=O)(=O)N1CC(CC#N)(n2cc(-c3ncnc4[nH]ccc34)cn2)C1` [BARICITINIB], the interaction_types result is “inhibitor” under setting [2] and “inhibitor” (gene PTK2B, ref DGIdb).

For `CCC1(c2ccc(N)cc2)CCC(=O)NC1=O` (centres unmarked) [AMINOGLUTETHIMIDE, reference compound], the interaction_types result (gene CYP19A1, ref DGIdb) is reported as “inhibitor”.

As for `C=CC(=O)N1CCC([C@@H]2CCNc3c(C(N)=O)c(-c4ccc(Oc5ccccc5)cc4)nn32)CC1` [ZANUBRUTINIB], the interaction_types entry (gene FGR, ref DGIdb) is given as “inhibitor”.

Consider `c1ccc(-c2[nH]ncc2-c2ccnc3ccccc23)nc1` [chembl:CHEMBL261454], for which, under setting [2], the interaction_types result is on record as “inhibitor”.

As to `COc1cc2c(c(OC)c1OC)-c1ccc(OC)c(=O)cc1[C@@H](NC(C)=O)CC2` [COLCHICINE], the interaction_types result (gene TUBA4A, ref DGIdb) was “inhibitor”.
